Experimental findings from patent US9062046B2, “Substituted imidazoquinoline derivatives as kinase inhibitors” (Piramal Enterprises Limited, priority 2011, dated 2015) are described below.

Assay [1] has as its system A2780 (ovarian cell line). As to the kind of experiment: Cytotoxicity assay (propidium iodide assay), A2780. It counts as cell-based. To be noted: A2780 cells, 48 h treatment; for inhibition at 1 µM / IC50: Homo sapiens. An outline of the steps: (§1)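 A2780 and PC3 cells, 3000/well, were treated with compound for 48 h after 18-24 h attachment. After washing, propidium iodide 7 μg/ml was added, followed by freeze-thaw at −70 °C and a fluorescence read. Viability was taken relative to untreated wells, with IC50 derived from the curves.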

Another assay has as its system PC3 (prostate cell line). As to the kind of experiment: Cytotoxicity assay (propidium iodide assay), PC3. To be noted: PC3 cells, 48 h treatment; for inhibition at 1 µM / IC50: Homo sapiens, PC-3. It counts as cell-based. An outline of the steps: as §1

Regarding `COc1ccc(-n2c(=NC#N)n(C)c3cnc4ccc(-c5ccc(C)cc5)cc4c32)cn1` [Example 44, N-(1-(6-methoxypyridin-3-yl)-3-methyl-8-p-tolyl-1H-imidazo[4,5-c]quinolin-2(3H)-ylidene)cyanamide], the inhibition (commonly the relative decrease from the control value, in per cent) at 1 µM was 30 to 70% in assay [1] and less than 30% in the assay with PC3 (prostate cell line).

As to `COc1ccc(-n2c(=NC#N)n(C)c3cnc4ccc(-c5cnc(N)c(C(F)(F)F)c5)cc4c32)c(Cl)n1` [Example 4, N-(8-(6-amino-5-(trifluoromethyl)pyridin-3-yl)-1-(2-chloro-6-methoxypyridin-3-yl)-3-methyl-1H-imidazo[4,5-c]quinolin-2(3H)-ylidene)cyanamide], the half-maximal inhibitory concentration (IC50) (in assay [1]; in the assay with PC3 (prostate cell line)) was no more than 0.5 µM each time.

Regarding `COc1ncc(-c2ccc3ncc4c(c3c2)n(-c2ccc(C(C)(C)C#N)cc2)c(=NC#N)n4C)cc1NS(=O)(=O)c1ccc(F)cc1F` [Example 135, N-(5-(2-(cyanoimino)-1-(4-(2-cyanopropan-2-yl)phenyl)-3-methyl-2,3-dihydro-1H-imidazo[4,5-c]quinolin-8-yl)-2-methoxypyridin-3-yl)-2,4-difluorobenzenesulfonamide], the inhibition at 1 µM (in assay [1]; in the assay on PC3 (prostate cell line)) was no less than 70% each time.

For the compound “N-(1-(6-methoxypyridin-3-yl)-3-methyl-8-(4-(trifluoromethyl)phenyl)-1H-imidazo[4,5-c]quinolin-2(3H)-ylidene)cyanamide [Example 43]”, in assay [1], the “% Inhibition at 1 μM, A2780” value was “+ (<30%)”. In the assay with PC3 (prostate cell line), the “% Inhibition at 1 μM, PC3” value was “+ (<30%)”.

Consider `COc1ccc(-n2c(=NC#N)n(C)c3cnc4ccc(-c5cccc(F)c5)cc4c32)cn1` [Example 40, N-(8-(3-fluorophenyl)-1-(6-methoxypyridin-3-yl)-3-methyl-1H-imidazo[4,5-c]quinolin-2(3H)-ylidene)cyanamide], for which the figures for the inhibition at 1 µM (in assay [1]; in the assay on PC3 (prostate cell line)) were 30 to 70% and less than 30%, respectively.

For `Cn1c(=NC#N)n(-c2ccc(C(C)(C)C#N)cc2)c2c3cc(-c4cnc(N)c(C(F)(F)F)c4)ccc3ncc21` [Example 6, N-(8-(6-amino-5-(trifluoromethyl)pyridin-3-yl)-1-(4-(2-cyanopropan-2-yl)phenyl)-3-methyl-1H-imidazo[4,5-c]quinolin-2(3H)-ylidene)cyanamide], the IC50 (in assay [1]; in the assay on PC3 (prostate cell line)) was no more than 0.5 µM throughout.

Take `Cn1c(=NC#N)n(-c2cncc(-c3ccccc3)c2)c2c3cc(-c4cnc(N)c(C(F)(F)F)c4)ccc3ncc21` [Example 92, N-(8-(6-amino-5-(trifluoromethyl)pyridin-3-yl)-3-methyl-1-(5-phenylpyridin-3-yl)-1H-imidazo[4,5-c]quinolin-2(3H)-ylidene)cyanamide]: the half-inhibitory concentration (IC50) (in assay [1]; with PC3 (prostate cell line)) was no more than 0.5 µM each time.

In the case of `Cn1c(=NC#N)n(-c2ccc(C(C)(C)C#N)nc2)c2c3cc(-c4cccnc4F)ccc3ncc21` [Example 64, N-(1-(6-(2-cyanopropan-2-yl)pyridin-3-yl)-8-(2-fluoropyridin-3-yl)-3-methyl-1H-imidazo[4,5-c]quinolin-2(3H)-ylidene)cyanamide], the inhibition at 1 µM in assay [1] is 30 to 70%; with PC3 (prostate cell line), less than 30%.

Consider `COc1ccc(-n2c(=NC#N)n(C)c3cnc4ccc(-c5cnc6ccccc6c5)cc4c32)cn1` [Example 3, N-(1-(6-methoxypyridin-3-yl)-3-methyl-8-(quinolin-3-yl)-1H-imidazo[4,5-c]quinolin-2(3H)-ylidene)cyanamide], for which the IC50 (in assay [1]; with PC3 (prostate cell line)) was no more than 0.5 µM each time.

In the case of `CN(C)c1ncc(-c2ccc3ncc4c(c3c2)n(-c2ccc(C(C)(C)C#N)cc2)c(=NC#N)n4C)cc1C(F)(F)F` [Example 129, N-(1-(4-(2-cyanopropan-2-yl)phenyl)-8-(6-(dimethylamino)-5-(trifluoromethyl)pyridin-3-yl)-3-methyl-1H-imidazo[4,5-c]quinolin-2(3H)-ylidene) cyanamide], the “% Inhibition at 1 μM, A2780” value in assay [1] is reported as “+++ (≧70%)”. For the same compound, in the assay on PC3 (prostate cell line), the “% Inhibition at 1 μM, PC3” value was “++ (≧30% upto 70%)”.

`Cn1c(=NC#N)n(-c2ccc(C(C)(C)C#N)nc2)c2c3cc(-c4ccc(O)cc4)ccc3ncc21` [Example 50, N-(1-(6-(2-cyanopropan-2-yl)pyridin-3-yl)-8-(4-hydroxyphenyl)-3-methyl-1H-imidazo[4,5-c]quinolin-2(3H)-ylidene)cyanamide]: the inhibition at 1 µM in assay [1] was no less than 70%; in the assay with PC3 (prostate cell line), 30 to 70%.

As to `COc1ccc(-n2c(=NC#N)n(C)c3cnc4ccc(-c5ccc6cccnc6c5)cc4c32)cn1` [Example 26, N-(1-(6-methoxypyridin-3-yl)-3-methyl-8-(quinolin-7-yl)-1H-imidazo[4,5-c]quinolin-2(3H)-ylidene)cyanamide], the inhibition at 1 µM is no less than 70% in assay [1] and 30 to 70% with PC3 (prostate cell line).

Consider `COc1ccc(-n2c(=NC#N)n(C)c3cnc4ccc(-c5cccc(Cl)c5)cc4c32)cn1` [Example 28, N-(8-(3-chlorophenyl)-1-(6-methoxypyridin-3-yl)-3-methyl-1H-imidazo[4,5-c]quinolin-2(3H)-ylidene)cyanamide], for which the inhibition at 1 µM was 30 to 70% in assay [1] and less than 30% in the assay with PC3 (prostate cell line).

Regarding `COc1ccc(-n2c(=NC#N)n(C)c3cnc4ccc(-c5ccc(OC)c(OC)c5)cc4c32)cn1` [Example 36, N-(8-(3,4-dimethoxyphenyl)-1-(6-methoxypyridin-3-yl)-3-methyl-1H-imidazo[4,5-c]quinolin-2(3H)-ylidene)cyanamide], the inhibition at 1 µM (in assay [1]; with PC3 (prostate cell line)) was no less than 70% throughout.

On to `Cn1c(=NC#N)n(-c2ccc(C(C)(C)C#N)nc2)c2c3cc(-c4cnc(NC(=O)OC(C)(C)C)c(C(F)(F)F)c4)ccc3ncc21` [Example 122, tert-butyl 5-(2-(cyanoimino)-1-(6-(2-cyanopropan-2-yl)pyridin-3-yl)-3-methyl-2,3-dihydro-1H-imidazo[4,5-c]quinolin-8-yl)-3-(trifluoromethyl)pyridin-2-ylcarbamate], for which the inhibition at 1 µM in assay [1] was no less than 70%; with PC3 (prostate cell line), 30 to 70%.

Turning to `COc1ccc(-n2c(=NC#N)n(C)c3cnc4ccc(-c5cnc(NC(=O)OC(C)(C)C)c(C(F)(F)F)c5)cc4c32)cn1` [Example 123, tert-butyl 5-(2-(cyanoimino)-1-(6-methoxypyridin-3-yl)-3-methyl-2,3-dihydro-1H-imidazo[4,5-c]quinolin-8-yl)-3-(trifluoromethyl)pyridin-2-ylcarbamate], the IC50 (in assay [1]; with PC3 (prostate cell line)) was no more than 0.5 µM throughout.

As to `CC(C)(C#N)c1ccc(-n2c(=NC#N)[nH]c3cnc4ccc(-c5cccnc5)cc4c32)cc1` [Example 85, N-(1-(4-(2-cyanopropan-2-yl)phenyl)-8-(pyridin-3-yl)-1H-imidazo[4,5-c]quinolin-2(3H)-ylidene)cyanamide], the inhibition at 1 µM (in assay [1]; with PC3 (prostate cell line)) was less than 30% each time.

With `COc1ccc(-c2ccc3ncc4c(c3c2)n(-c2ccc(C(C)(C)C#N)nc2)c(=NC#N)n4C)cn1` [Example 51, N-(1-(6-(2-cyanopropan-2-yl)pyridin-3-yl)-8-(6-methoxypyridin-3-yl)-3-methyl-1H-imidazo[4,5-c]quinolin-2(3H)-ylidene)cyanamide], the inhibition at 1 µM in assay [1] is no less than 70%; in the assay on PC3 (prostate cell line) it was 30 to 70%.

For `COc1ccc(-n2c(=NC#N)n(C)c3cnc4ccc(-c5cccc(O)c5)cc4c32)cn1` [Example 38, N-(8-(3-hydroxyphenyl)-1-(6-methoxypyridin-3-yl)-3-methyl-1H-imidazo[4,5-c]quinolin-2(3H)-ylidene)cyanamide], the inhibition at 1 µM was no less than 70% in assay [1] and 30 to 70% in the assay with PC3 (prostate cell line).

Consider `COc1ccc(F)cc1-c1ccc2ncc3c(c2c1)n(-c1ccc(C(C)(C)C#N)nc1)c(=NC#N)n3C` [Example 52, N-(1-(6-(2-cyanopropan-2-yl)pyridin-3-yl)-8-(5-fluoro-2-methoxyphenyl)-3-methyl-1H-imidazo[4,5-c]quinolin-2(3H)-ylidene)cyanamide], for which the inhibition at 1 µM (in assay [1]; in the assay on PC3 (prostate cell line)) was less than 30% in each case.

As to `COc1ncc(-c2ccc3ncc4c(c3c2)n(-c2ccc(C(C)(C)C#N)cc2)c(=NC#N)n4C)cc1N` [Example 84, N-(8-(5-amino-6-methoxypyridin-3-yl)-1-(4-(2-cyanopropan-2-yl)phenyl)-3-methyl-1H-imidazo[4,5-c]quinolin-2(3H)-ylidene)cyanamide], the inhibition at 1 µM (in assay [1]; in the assay on PC3 (prostate cell line)) was no less than 70% each time.

In the case of `COc1ncc(-c2ccc3ncc4c(c3c2)n(-c2ccc(C(C)(C)C#N)cc2)c(=NC#N)n4C)cc1NS(=O)(=O)c1ccccc1` [Example 124, N-(5-(2-(cyanoimino)-1-(4-(2-cyanopropan-2-yl)phenyl)-3-methyl-2,3-dihydro-1H-imidazo[4,5-c]quinolin-8-yl)-2-methoxypyridin-3-yl)benzenesulfonamide], the inhibition at 1 µM (in assay [1]; in the assay with PC3 (prostate cell line)) was no less than 70% each time.

On to `Cn1c(=NC#N)n(-c2ccc(C(C)(C)C#N)cc2)c2c3cc(-c4ccc(N5CCOCC5)nc4)ccc3ncc21` [Example 90, N-(1-(4-(2-cyanopropan-2-yl)phenyl)-3-methyl-8-(6-morpholinopyridin-3-yl)-1H-imidazo[4,5-c]quinolin-2(3H)-ylidene)cyanamide], for which the inhibition at 1 µM in assay [1] is no less than 70%; in the assay on PC3 (prostate cell line), 30 to 70%.

`COc1ccc(-n2c(=NC#N)n(C)c3cnc4ccc(-c5ccccc5OC)cc4c32)cn1` [Example 49, N-(8-(2-methoxyphenyl)-1-(6-methoxypyridin-3-yl)-3-methyl-1H-imidazo[4,5-c]quinolin-2(3H)-ylidene)cyanamide]: the inhibition at 1 µM in assay [1] is 30 to 70%; with PC3 (prostate cell line), less than 30%.

On to `COc1ccc(-n2c(=NC#N)n(C)c3cnc4ccc(-c5cccc(C(F)(F)F)c5)cc4c32)cn1` [Example 41, N-(1-(6-methoxypyridin-3-yl)-3-methyl-8-(3-(trifluoromethyl)phenyl)-1H-imidazo[4,5-c]quinolin-2(3H)-ylidene)cyanamide], for which the inhibition at 1 µM (in assay [1]; in the assay on PC3 (prostate cell line)) was 30 to 70% each time.
